From US20250367171A1, “THERAPEUTIC OR PROPHYLACTIC AGENT FOR PERIPHERAL NEUROPATHIES” (Toray Industries, Inc., priority 2017, published 2025) come the findings set out here.

SMILES strings stand for the structures.

Common to all, as to assay type: in vivo
In assay [1] the test system is rat experimental autoimmune neuritis (EAN) model. Kind of assay: Mechanical allodynia (von Frey test) in rat EAN model. Particulars: day 14, 3 hours after administration, vs vehicle group. As to the method:
EAN model rats were prepared in a manner similar to Example 9. Further, a pseudo-induction animal was prepared by administering physiological saline (Otsuka Pharmaceutical Factory, Inc.) instead of a peptide solution for administration. The day of administration of the peptide solution for administration or physiological saline was designated as day 0 after induction of pathological conditions.
On day 14 after induction of pathological conditions, compound 1 (5 or 10 mg/kg) or a solvent thereof (water for injection) was orally administered to rats. Groups were composed of 4 groups: a pseudo-induction and solvent administration group (sham group); a pathological condition-induced and solvent administration group (vehicle group); a pathological condition-induced and compound 1 (5 mg/kg) administration group (compound 1 (5 mg/kg) group); and a pathological condition-induced and compound 1 (10 mg/kg) administration group (compound 1 (10 mg/kg) administration group).
Beneficial effects on mechanical allodynia were evaluated in a manner similar to Example 5, and this evaluation was performed at 3 hours after administration of compound 1 on day 14 after induction of pathological conditions.

The test system is the same in assay [2]. In words: Rat experimental autoimmune neuritis (EAN) model: clinical scores, body weight, histopathology. The procedure:
A method of preparing EAN model rats is as described below. Peripheral myelin protein P2 peptide 57-81 (synthesized at Toray Research Center, Inc.) was dissolved in physiological saline (Otsuka Pharmaceutical Factory, Inc.) to prepare a 2 mg/mL solution. The solution and 2 mg/mL complete Freund's adjuvant (Difco Laboratories) containing killed Mycobacterium tuberculosis H37Ra were mixed in equal amounts, thereby preparing an emulsion which was a peptide solution for administration. The peptide solution for administration (200 μL) was administered subcutaneously to the base of the tail of each Lewis rat (6 to 7 weeks old, male; CHARLES RIVER LABORATORIES JAPAN, INC.) under anesthesia, thereby preparing the EAN model. The day of administration of the peptide was designated as day 0 after induction of pathological conditions.
Clinical scores were evaluated as follows: 0=no symptom, 1=limp tail or hind limb weakness, 2=limp tail and hind limb weakness, 3=partial hind limb paralysis, 4=complete hind limb paralysis, 5=moribund state or death. Weighing was also performed.
Compound 1 (20 mg/kg) was dissolved in distilled water (Otsuka Pharmaceutical Factory, Inc.) and then the solution was orally administered to the EAN model twice a day (administration was started on day 10 after induction of pathological conditions). As a control, distilled water was orally administered to the EAN model. Groups were composed of 2 groups: a solvent administration group (vehicle group); and a compound 1 administration group.
For histopathological evaluation, on day 17 after induction of pathological conditions, the sciatic nerve and the tibial nerve were isolated, and then immersed in a 10% formalin neutral buffer solution. Specimens were sliced and then subjected to hematoxylin-eogin staining, Kliiver-Barrera staining (double staining of Luxol Fast Blue staining and Nissl staining) and immunostaining (IbaI, CD3, NFP and MBP). Specimens were observed under an optical microscope, and then the presence or the absence of T cell and macrophage infiltration, and degeneration of myelin sheaths and axons were evaluated.

Assay [3] deals with rat streptozotocin-induced diabetes model. Kind of assay: Nerve conduction velocity in rat streptozotocin-induced diabetes model. To be noted: 10 mg/kg oral twice a day, days 14 to 28 after induction, vs vehicle group. The procedure: Streptozotocin (50 mg/kg, Sigma-Aldrich) was administered intravenously to SD rats (6 weeks old, male; CHARLES RIVER LABORATORIES JAPAN, INC.) via the tail vein, thereby preparing the streptozotocin-induced diabetes model. Streptozotocin was dissolved in a citrate buffer to prepare a 25 mg/mL solution, and then administered. A no pathological condition-induced animal was prepared by administering no streptozotocin solution. The day of initial administration was designated as day 1 after induction of pathological conditions.
On days 14 to 28 after induction of pathological conditions, a solution containing compound 1 (3 or 10 mg/kg) or a solvent thereof (water for injection) was orally administered to rats twice a day. […]
Nerve conduction velocity was measured within 3 days from the next day of the final administration. […] A-B stimulation and B-C stimulation were designated as distal stimulation and proximal stimulation, respectively, and then the transmission time of stimulation was analyzed on the basis of each lead-out waveform obtained from the electrode at the footpad. Nerve conduction velocity was calculated on the basis of a difference in transmission time between the distal stimulation and the proximal stimulation and the distance between the electrodes.

In assay [4] the test system is rat cisplatin-induced peripheral neuropathy model. In words: Mechanical allodynia (von Frey test) in rat cisplatin-induced peripheral neuropathy model. To be noted: 10 mg/kg oral single dose, day 34, 2 hours after administration, vs vehicle group. As to the method:
Cisplatin (Wako Pure Chemical Industries, Ltd.) was intraperitoneally administered to SD rats (6 weeks old, male; CHARLES RIVER LABORATORIES JAPAN, INC.) intermittently twice a week (1 or 2 mg/kg) for 5 weeks, thereby preparing a cisplatin-induced peripheral neuropathy model. Cisplatin was dissolved in physiological saline to a concentration of 10 mg/mL and then administered. As a control (pseudo-induction), physiological saline was administered. The initial day of administration was designated as day 1 after induction of pathological conditions.
On day 34 after induction of pathological conditions, a solution containing compound 1 (10 mg/kg) or a solvent thereof (water for injection) was orally administered to rats. Groups were composed of 3 groups: a pseudo-induction and solvent administration group (sham group); a pathological condition-induced and solvent administration group (vehicle group); and a pathological condition-induced and compound 1 (10 mg/kg) administration group (compound 1 (10 mg/kg) group).
Beneficial effects on mechanical allodynia were evaluated in a manner similar to Example 5 and this evaluation was performed before and 2 hours after administration of compound 1 on day 34 after induction of pathological conditions.

Setting [5] is: 20 mg/kg oral twice a day, day 17, n = 3.

On to `CN(C)C1CCN(C(=O)C[C@H](O)c2nccn2C)CC1` [Compound 1, (S)-1-(4-(dimethylamino)piperidin-1-yl)-3-hydroxy-3-(1-methyl-1H-imidazol-2-yl)propan-1-one], for which the “50% response threshold in von Frey test (mechanical allodynia)” value (shortened to “50% response threshold in von Frey test”) in assay [1] (5 mg/kg oral single dose) was “Significant increases in 50% response threshold”. Moreover, the “50% response threshold in von Frey test” value in assay [1] (10 mg/kg oral single dose) is on record as “Significant increases in 50% response threshold”. The body weight loss result in assay [2] (20 mg/kg oral twice a day from day 10 after induction) is recorded as “no body weight loss was induced”. In addition, in assay [2] (20 mg/kg oral twice a day from day 10 after induction, vs vehicle group), the clinical scores entry is reported as “Increases in clinical scores were suppressed”. For the same compound, in assay [2] (setting [5]), the “number of animals with T cell infiltration, sciatic nerve” value is recorded as 1/3; the “number of animals with T cell infiltration, tibial nerve” value is reported as 0/3; the “number of animals with axonal degeneration, sciatic nerve” value is reported as 0/3; the “number of animals with axonal degeneration, tibial nerve” value is reported as 0/3. Further, in assay [2] (setting [5]), the “number of animals with macrophage infiltration, sciatic nerve” value is on record as 1/3; the “number of animals with macrophage infiltration, tibial nerve” value was 0/3; the “number of animals with myelin sheath degeneration, sciatic nerve” value is on record as 0/3; the “number of animals with myelin sheath degeneration, tibial nerve” value is recorded as 0/3. Besides, in assay [3], the nerve conduction velocity result is “Significant increases in nerve conduction velocity”. Besides, in assay [4], the “50% response threshold in von Frey test” value was “significant increase in 50% response threshold”.
